One data set deals with 5′-(AAAAAAAAAAAAAA)-3′. Nature of the data set: Tm of duplex (spectrophotometric melting curves). Particulars: vs RNA 5′-(AAAAAAAAAAAAAA)-3′; 10 mM Na2HPO4 pH 7.0, 100 mM NaCl, 0.1 mM EDTA. The format is binding. As for the experimental part: (§1) Thermostability of oligonucleotides containing monomers of formula V, X, Y and Z^T, Z^U, Z^G, Z^C, Z^A, Z^MeC. The thermostability of the LNA modified oligonucleotides were determined spectrophotometrically using a spectrophotometer equipped with a thermoregulated Peltier element. Hybridisation mixtures of 1 ml were prepared containing either of 3 different buffers (10 mM Na2HPO4, pH 7.0, 100 mM NaCl, 0.1 mM EDTA; 10 mM Na2HPO4 pH 7.0, 0.1 mM EDTA; 3M tetramethylammoniumchlorid (TMAC), 10 mM Na2HPO4, pH 7.0, 0.1 mM EDTA) and equimolar (1 μM or 1.5 μM) amounts of the different LNA modified oligonucleotides and their complementary or mismatched DNA or RNA oligonucleotides. Identical hybridisation mixtures using the unmodified oligonucleotides were prepared as references. The Tm's were obtained as the first derivative of the melting curves. FIG. 2 illustrates the monomeric LNAs used. The nomenclature V, X, Y and Z^T, Z^U, Z^G, Z^C, Z^A, Z^MeC refer to structures V, X, Y and Z of FIG. 2. In the tables, the nucleobases of the LNA monomers are indicated. Furthermore, for the thio and amino variants of the LNA structure Z of the last two tables, the nomenclature used is, e.g., Z^TS and Z^TNH, respectively.

In a further data set the test system is 5′-d(AAAAAAAAAAAAAA)-3′. Nature of the data set: Tm of duplex (spectrophotometric melting curves). As to conditions: vs 5′-d(AAAAAAAAAAAAAA)-3′; 10 mM Na2HPO4 pH 7.0, 100 mM NaCl, 0.1 mM EDTA. The format is binding. As for the experimental part:
as §1

Strand notation (5' to 3'): a small letter for the sugar, then the base; units joined by * are phosphorothioate-linked, units joined directly phosphodiester-linked; [ ] holds rarer units or linkages, { } end groups; capitals alone tell only the bases. V = LNA monomer of structure V, bold; X = bicyclic LNA-type nucleotide of structure X in the publication's (LNA marked in bold); Y = bicyclic LNA-type thymidine monomer of structure Y; l = locked nucleic acid (LNA); d = 2'-deoxy (DNA)

As to “5′-d(TTTTTTTTTTTTTT)-3′ (SEQ ID NO: 144): fully modified poly-T oligonucleotide of structure Y (sugars from the 5' end Y13 d1, backbone not given here)”, the “Tm (° C.) Na2HPO4/NaCl/EDTA” value in the data set with 5′-(AAAAAAAAAAAAAA)-3′ and with 5′-d(AAAAAAAAAAAAAA)-3′ was 58 °C throughout.

Regarding “5′-d(TTTTTTTTTTTTTT)-3′ (SEQ ID NO: 92): partly modified poly-T oligonucleotide with Z^T (50, 51) (DNA dTdTdTdTlTdTlTdTlTdTlTdTdTdT)”, the “Tm (° C.) Na2HPO4/NaCl/EDTA” value is 53 °C in the data set with 5′-(AAAAAAAAAAAAAA)-3′ and 47 °C in the data set with 5′-d(AAAAAAAAAAAAAA)-3′.

For “5′-d(TTTTTTTTTTTTTT)-3′ (SEQ ID NO: 129): partly modified poly-T with monomer Y (sugars from the 5' end d7 Y1 d6, backbone not given here)”, the entries for the “Tm (° C.) Na2HPO4/NaCl/EDTA” value with 5′-(AAAAAAAAAAAAAA)-3′ and with 5′-d(AAAAAAAAAAAAAA)-3′ were 37 °C and 36 °C, respectively.

For “5′-d(TTTTTTTTTTTTTT)-3′ (SEQ ID NO: 135): partly modified poly-T with monomer Y (sugars from the 5' end d6 Y1 d1 Y1 d5, backbone not given here)”, the “Tm (° C.) Na2HPO4/NaCl/EDTA” value with 5′-(AAAAAAAAAAAAAA)-3′ was 36 °C; with 5′-d(AAAAAAAAAAAAAA)-3′ it was 35 °C.

In the case of “5′-d(TTTTTTTTTTTTTT)-3′ (SEQ ID NO: 117): poly-T containing X^T (sugars from the 5' end d7 X1 d6, backbone not given here)”, the “Tm (° C.) Na2HPO4/NaCl/EDTA” value in the data set on 5′-(AAAAAAAAAAAAAA)-3′ and with 5′-d(AAAAAAAAAAAAAA)-3′ was 23 °C each time.

“5′-d(TTTTTTTTTTTTTT)-3′ (SEQ ID NO: 86): partly modified poly-T oligonucleotide with Z^T (46, 47) (DNA dTdTdTdTdTdTlTlTdTdTdTdTdTdT)”: the “Tm (° C.) Na2HPO4/NaCl/EDTA” value was 40 °C in the data set with 5′-(AAAAAAAAAAAAAA)-3′ and 34 °C in the data set with 5′-d(AAAAAAAAAAAAAA)-3′.

Take “5′-d(TTTTTTTTTTTTTT)-3′ (SEQ ID NO: 107): partly modified poly-T with monomer V (sugars from the 5' end d5 V4 d5, backbone not given here)”: the “Tm (° C.) Na2HPO4/NaCl/EDTA” value was determined as 31 °C with 5′-(AAAAAAAAAAAAAA)-3′ and 23 °C with 5′-d(AAAAAAAAAAAAAA)-3′.

“5′-d(TTTTTTTTTTTTTT)-3′ (SEQ ID NO: 80): unmodified poly-T oligonucleotide (Table 1, 42 and 43) (unmodified DNA) [reference compound]”: the figures for the “Tm (° C.) Na2HPO4/NaCl/EDTA” value in the data set on 5′-(AAAAAAAAAAAAAA)-3′ and in the data set on 5′-d(AAAAAAAAAAAAAA)-3′ were 32 °C and 36 °C, respectively.

For the substance “5′-d(TTTTTTTTTTTTTT)-3′ (SEQ ID NO: 110): partly modified poly-T with monomer V (sugars from the 5' end ddddVdVdVdVddd, backbone not given here)”, the “Tm (° C.) Na2HPO4/NaCl/EDTA” value was found to be 16 °C in the data set with 5′-(AAAAAAAAAAAAAA)-3′ and 23 °C with 5′-d(AAAAAAAAAAAAAA)-3′.

As for “5′-d(TTTTTTTTTTTTTT)-3′ (SEQ ID NO: 83): partly modified poly-T oligonucleotide with Z^T (44, 45) (DNA dTdTdTdTdTdTlTdTdTdTdTdTdTdT)”, the figures for the “Tm (° C.) Na2HPO4/NaCl/EDTA” value with 5′-(AAAAAAAAAAAAAA)-3′ and in the data set with 5′-d(AAAAAAAAAAAAAA)-3′ were 32 °C and 36 °C, respectively.

For “5′-d(TTTTTTTTTTTTTT)-3′ (SEQ ID NO: 126): poly-T containing X^T (sugars from the 5' end d5 X4 d5, backbone not given here)”, the “Tm (° C.) Na2HPO4/NaCl/EDTA” value with 5′-(AAAAAAAAAAAAAA)-3′ is 14 °C; with 5′-d(AAAAAAAAAAAAAA)-3′, 5 °C.

For “5′-d(TTTTTTTTTTTTTT)-3′ (SEQ ID NO: 132): partly modified poly-T with monomer Y (sugars from the 5' end d6 Y2 d6, backbone not given here)”, the “Tm (° C.) Na2HPO4/NaCl/EDTA” value with 5′-(AAAAAAAAAAAAAA)-3′ is 37 °C; in the data set with 5′-d(AAAAAAAAAAAAAA)-3′, 35 °C.

As for “5′-d(TTTTTTTTTTTTTT)-3′ (SEQ ID NO: 98): partly modified poly-T with monomer V (sugars from the 5' end d7 V1 d6, backbone not given here)”, the “Tm (° C.) Na2HPO4/NaCl/EDTA” value with 5′-(AAAAAAAAAAAAAA)-3′ amounted to 27 °C; in the data set on 5′-d(AAAAAAAAAAAAAA)-3′, 32 °C.

Regarding “5′-d(TTTTTTTTTTTTTT)-3′ (SEQ ID NO: 120): poly-T containing X^T (sugars from the 5' end d6 X2 d6, backbone not given here)”, the figures for the “Tm (° C.) Na2HPO4/NaCl/EDTA” value in the data set on 5′-(AAAAAAAAAAAAAA)-3′ and in the data set with 5′-d(AAAAAAAAAAAAAA)-3′ were 23 °C and 19 °C, respectively.

With “5′-d(TTTTTTTTTTTTTT)-3′ (SEQ ID NO: 104): partly modified poly-T with monomer V (sugars from the 5' end d6 V1 d1 V1 d5, backbone not given here)”, the “Tm (° C.) Na2HPO4/NaCl/EDTA” value with 5′-(AAAAAAAAAAAAAA)-3′ is 23 °C; with 5′-d(AAAAAAAAAAAAAA)-3′, 30 °C.

On to “5′-d(TTTTTTTTTTTTTT)-3′ (SEQ ID NO: 138): partly modified poly-T with monomer Y (sugars from the 5' end d5 Y4 d5, backbone not given here)”, for which the “Tm (° C.) Na2HPO4/NaCl/EDTA” value with 5′-(AAAAAAAAAAAAAA)-3′ is 33 °C; in the data set with 5′-d(AAAAAAAAAAAAAA)-3′ it was 32 °C.

In the case of “5′-d(TTTTTTTTTTTTTT)-3′ (SEQ ID NO: 141): partly modified poly-T with monomer Y (sugars from the 5' end ddddYdYdYdYddd, backbone not given here)”, the “Tm (° C.) Na2HPO4/NaCl/EDTA” value in the data set with 5′-(AAAAAAAAAAAAAA)-3′ and with 5′-d(AAAAAAAAAAAAAA)-3′ was 36 °C throughout.

For “5′-d(TTTTTTTTTTTTTT)-3′ (SEQ ID NO: 89): partly modified poly-T oligonucleotide with Z^T (48, 49) (DNA dTdTdTdTdTlTlTlTlTdTdTdTdTdT)”, the “Tm (° C.) Na2HPO4/NaCl/EDTA” value worked out at 52 °C in the data set with 5′-(AAAAAAAAAAAAAA)-3′ and 42 °C with 5′-d(AAAAAAAAAAAAAA)-3′.

As for “5′-d(TTTTTTTTTTTTTT)-3′ (SEQ ID NO: 101): partly modified poly-T with monomer V (sugars from the 5' end d6 V2 d6, backbone not given here)”, the “Tm (° C.) Na2HPO4/NaCl/EDTA” value in the data set on 5′-(AAAAAAAAAAAAAA)-3′ was 28 °C; in the data set with 5′-d(AAAAAAAAAAAAAA)-3′ it was 31 °C.

Take “5′-d(TTTTTTTTTTTTTT)-3′ (SEQ ID NO: 123): poly-T containing X^T (sugars from the 5' end d6 X1 d1 X1 d5, backbone not given here)”: the “Tm (° C.) Na2HPO4/NaCl/EDTA” value is 15 °C in the data set on 5′-(AAAAAAAAAAAAAA)-3′ and 9 °C in the data set on 5′-d(AAAAAAAAAAAAAA)-3′.

For the origin of these results see patent US8080644B2, “Oligonucleotide analogues” (Exiqon A/S, priority 1997, dated 2011).
